Calls of active or inactive are those of the source.
Experiments:
[1] = OVCAR-3 cell viability loss – plate reader, dry powder samples, PAX8 inhibitor project, dose response (AID 743044); assay type: functional, cell-based
[2] = CMV-driven luciferase expression suppression in HEK293 – cell-based, luminescence, dry powder, counter-screen for Pax8 inhibitor project, dose response (AID 743020); assay type: functional
[3] = target: Paired box protein Pax-8 (Homo sapiens, UniProt Q06710); experiment: PAX8 transcriptional activity inhibition in RMG-I – RMG-I cells, luciferase, cherry-pick, dose response (AID 687027); assay type: functional, cell-based;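 also: luciferase reporter driven by Pax8 target thyroperoxidase promoter measured by SteadyGlo luminescence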
Chain of Paired box protein Pax-8 (Q06710 whole entry): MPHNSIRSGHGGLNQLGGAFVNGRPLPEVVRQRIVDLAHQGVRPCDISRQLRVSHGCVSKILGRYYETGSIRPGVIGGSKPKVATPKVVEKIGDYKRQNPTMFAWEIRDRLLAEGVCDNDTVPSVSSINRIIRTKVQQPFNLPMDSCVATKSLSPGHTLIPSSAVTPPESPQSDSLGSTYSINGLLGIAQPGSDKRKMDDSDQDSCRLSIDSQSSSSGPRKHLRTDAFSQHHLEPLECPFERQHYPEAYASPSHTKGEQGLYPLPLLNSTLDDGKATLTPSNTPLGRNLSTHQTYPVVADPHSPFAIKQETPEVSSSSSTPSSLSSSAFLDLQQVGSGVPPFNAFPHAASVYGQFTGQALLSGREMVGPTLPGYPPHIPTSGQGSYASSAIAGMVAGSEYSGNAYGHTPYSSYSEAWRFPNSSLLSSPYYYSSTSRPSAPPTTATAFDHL

[4] = IGROV1 cell killing – plate reader, dry powder samples, PAX8 inhibitor project, dose response (AID 743043); assay type: functional, cell-based; conditions: IGROV-1
[5] = OVCAR8 cell viability loss – plate reader, dry powder samples, PAX8 project, dose response (AID 743197); assay type: functional, cell-based; conditions: OVCAR-8
[6] = MITF Orthogonal Assay: SK-MEL-5 CTG Assay Measured in Cell-Based System Using Plate Reader - 2084-02_Inhibitor_Dose_DryPowder_Activity_Set7.; assay type: functional
[7] = inhibitors of TRPM1-promoter reporter in SK-MEL-5 – cell-based, luciferase, dry powder, set 8, MITF inhibitor project, dose response (AID 624430); assay type: functional
[8] = MITF: Counter assay: A375 proliferation Measured in Cell-Based System Using Plate Reader - 2084-03_Inhibitor_Dose_DryPowder_Activity_Set8.; assay type: functional; conditions: A-375
[9] = inhibition of bursicon-driven LGR2 cAMP signaling – cell-based, HEK293, CRE-luciferase reporter, cherry pick, dose response (AID 743342); assay type: functional
[10] = T. cruzi growth inhibition in host cells, dose response, cell-based, plate reader, dry powder, set 2 (AID 652275); assay type: functional
[11] = general mammalian cell viability loss – inhibitor set, cherry-pick, set 2, cytotoxicity control for miR-122 modulator project, dose response (AID 720697); assay type: functional, cell-based
[12] = loss of viability in HeLa cells – cell-based, ATP luminescence, dry powder, cytotoxicity control, dose response (AID 652117); assay type: functional
[13] = target: Protein disulfide-isomerase (Homo sapiens, UniProt P07237); experiment: inhibition of PDI-mediated insulin reduction – biochemical, turbidity, dry powder samples, set 2, confirmation (AID 652146)
Chain of Protein disulfide-isomerase (P07237 whole entry): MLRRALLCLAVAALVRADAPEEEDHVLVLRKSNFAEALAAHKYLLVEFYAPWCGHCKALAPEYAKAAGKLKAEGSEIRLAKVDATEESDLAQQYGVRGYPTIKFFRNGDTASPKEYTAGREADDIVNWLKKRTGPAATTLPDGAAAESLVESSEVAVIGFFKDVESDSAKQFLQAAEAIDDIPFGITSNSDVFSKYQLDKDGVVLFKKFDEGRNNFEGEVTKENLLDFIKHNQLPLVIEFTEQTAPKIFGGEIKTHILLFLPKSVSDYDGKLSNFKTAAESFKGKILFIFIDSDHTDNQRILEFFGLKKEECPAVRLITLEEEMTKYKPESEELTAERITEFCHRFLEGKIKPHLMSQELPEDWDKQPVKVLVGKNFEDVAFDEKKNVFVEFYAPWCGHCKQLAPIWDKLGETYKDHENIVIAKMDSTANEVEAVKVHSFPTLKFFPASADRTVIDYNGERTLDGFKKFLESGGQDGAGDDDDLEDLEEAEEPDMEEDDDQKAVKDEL

[14] = general mammalian cell viability loss – activator set, cherry-pick, cytotoxicity control for miR-122 modulator project, dose response (AID 720690); assay type: functional, cell-based;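 also: HEK293T human cells scored for general mammalian cytotoxicity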
[15] = activation of miR-122 Renilla sensor silencing – cell-based, Huh7 psiCHECK-miR122, Renilla luciferase, cherry-picked, dose response (AID 651956); assay type: functional;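 also: huh7 hepatoma cells stably carrying a psiCHECK-2 miR-122 sensor plasmid; renilla luciferase signal reporting endogenous miR-122 activity after 48 h compound exposure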
[16] = target: T1, Sentrin-specific protease 7 (Homo sapiens, UniProt Q9BQF6); assay type: functional;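 also: Luminescence-based dose-response confirmation of ultra-high-throughput screening hits, measuring inhibition of SENP7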
T1 sequence (Q9BQF6 whole entry): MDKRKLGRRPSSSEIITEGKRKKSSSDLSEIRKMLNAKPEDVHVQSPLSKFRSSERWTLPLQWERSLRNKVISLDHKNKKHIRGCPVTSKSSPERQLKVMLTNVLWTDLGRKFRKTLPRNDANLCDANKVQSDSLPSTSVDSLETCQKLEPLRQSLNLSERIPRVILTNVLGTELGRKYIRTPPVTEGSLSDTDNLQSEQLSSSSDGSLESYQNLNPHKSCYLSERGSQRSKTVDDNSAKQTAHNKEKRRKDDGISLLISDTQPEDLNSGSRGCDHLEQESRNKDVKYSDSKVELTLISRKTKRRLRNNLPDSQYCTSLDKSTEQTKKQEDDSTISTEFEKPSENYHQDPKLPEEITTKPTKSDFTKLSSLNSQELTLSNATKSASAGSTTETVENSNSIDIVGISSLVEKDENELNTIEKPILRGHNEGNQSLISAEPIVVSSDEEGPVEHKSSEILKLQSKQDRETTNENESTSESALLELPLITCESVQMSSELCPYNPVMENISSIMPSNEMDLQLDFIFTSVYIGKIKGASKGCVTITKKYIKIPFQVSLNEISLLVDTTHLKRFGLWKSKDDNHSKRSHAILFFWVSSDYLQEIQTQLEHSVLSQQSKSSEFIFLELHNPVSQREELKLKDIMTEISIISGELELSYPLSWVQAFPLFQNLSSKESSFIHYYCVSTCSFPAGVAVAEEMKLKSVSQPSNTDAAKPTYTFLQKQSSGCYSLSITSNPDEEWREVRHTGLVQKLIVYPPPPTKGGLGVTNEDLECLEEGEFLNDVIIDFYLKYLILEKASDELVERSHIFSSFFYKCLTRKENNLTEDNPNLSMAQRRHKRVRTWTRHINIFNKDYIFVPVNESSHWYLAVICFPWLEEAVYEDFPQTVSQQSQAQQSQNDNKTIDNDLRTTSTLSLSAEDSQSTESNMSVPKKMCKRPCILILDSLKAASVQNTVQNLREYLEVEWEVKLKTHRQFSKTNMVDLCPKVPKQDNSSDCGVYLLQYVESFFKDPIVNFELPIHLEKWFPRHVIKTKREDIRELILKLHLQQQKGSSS

[17] = system: BJ; experiment: BJ-TERT fibroblast viability loss – cell-based, RAS-independent, luminescence, dose response (AID 1933); assay type: functional; conditions: Homo sapiens
[18] = target: Luciferin 4-monooxygenase (Photinus pyralis, UniProt P08659); experiment: inhibition of purified Photinus pyralis luciferase – biochemical, luminescence, dose response (AID 1891)
Chain of Luciferin 4-monooxygenase (P08659 whole entry): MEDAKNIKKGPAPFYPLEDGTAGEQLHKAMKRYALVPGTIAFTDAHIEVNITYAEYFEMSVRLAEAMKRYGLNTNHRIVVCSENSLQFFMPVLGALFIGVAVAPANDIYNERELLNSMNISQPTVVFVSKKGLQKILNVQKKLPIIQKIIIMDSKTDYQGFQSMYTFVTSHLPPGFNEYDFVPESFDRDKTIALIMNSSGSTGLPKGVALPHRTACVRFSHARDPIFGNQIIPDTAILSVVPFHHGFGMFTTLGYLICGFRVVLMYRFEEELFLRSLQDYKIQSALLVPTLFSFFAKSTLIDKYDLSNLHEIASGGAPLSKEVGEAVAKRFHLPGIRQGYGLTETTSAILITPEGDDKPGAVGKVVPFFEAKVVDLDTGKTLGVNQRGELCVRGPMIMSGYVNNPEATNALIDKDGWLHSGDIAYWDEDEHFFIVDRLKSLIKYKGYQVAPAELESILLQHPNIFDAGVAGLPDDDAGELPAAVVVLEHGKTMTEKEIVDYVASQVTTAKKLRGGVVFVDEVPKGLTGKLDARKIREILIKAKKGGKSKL

[19] = cells; assay type: functional, cell-based
[20] = Luminescence Cell-Based Dose Confirmation HTS to Identify Inhibitors of Platelet Dense Granule Release. [Related pubchem assays: 1663 (Primary HTS), 1678 (Summary of Project)]; assay type: functional
[21] = NIH3T3 cell viability loss – ATP luminescence, mouse fibroblasts, counter-screen, dose response (AID 2010); assay type: functional, cell-based;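 also: cells exposed to compound for about 90 hours before reading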
[22] = Trypanosoma cruzi growth suppression in host cells – NIH3T3 host cells, beta-gal luminescence, confirmation (AID 2044); assay type: functional, cell-based;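 also: intracellular parasites grown in NIH/3T3 mouse fibroblasts as host cells; luminescent beta-galactosidase reporter signal from transgenic T. cruzi replicating inside host cells; inhibitors lower the luminescence signal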
[23] = DRD fibroblast viability loss – cell-based, non-viral oncogenic, luminescence, dose response (AID 1934); assay type: functional; conditions: Homo sapiens
[24] = cells; assay type: functional, cell-based; remark: listed apart in the source
[25] = target: T2, Sentrin-specific protease 8 (Homo sapiens, UniProt Q96LD8); assay type: functional;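 also: luminescence read-out of SENP8 inhibition, dose-response confirmation following an ultra-high-throughput screen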
T2 sequence (Q96LD8 whole entry): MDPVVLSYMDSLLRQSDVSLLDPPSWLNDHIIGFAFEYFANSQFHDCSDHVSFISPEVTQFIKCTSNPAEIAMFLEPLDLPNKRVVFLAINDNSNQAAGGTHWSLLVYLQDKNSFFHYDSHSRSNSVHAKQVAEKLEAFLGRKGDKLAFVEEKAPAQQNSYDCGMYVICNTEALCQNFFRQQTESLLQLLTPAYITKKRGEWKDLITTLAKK

[26] = system: INS1; experiment: INS-1E survival protection against cytokine death – cell-based, luminescence, retest, dose response (AID 449756); assay type: functional; conditions: Rattus norvegicus;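 also: cell death triggered by IL-1 beta plus TNF-alpha plus IFN-gamma mixture; protective hits raise ATP signal compared with cytokine alone wells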
[27] = target: T3, Caspase-3 (Homo sapiens, UniProt P42574); assay type: functional;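 also: Dose-response selectivity test against caspase-3 for candidate inhibitors of sentrin-specific proteases (SENPs)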
T3 sequence (P42574 whole entry): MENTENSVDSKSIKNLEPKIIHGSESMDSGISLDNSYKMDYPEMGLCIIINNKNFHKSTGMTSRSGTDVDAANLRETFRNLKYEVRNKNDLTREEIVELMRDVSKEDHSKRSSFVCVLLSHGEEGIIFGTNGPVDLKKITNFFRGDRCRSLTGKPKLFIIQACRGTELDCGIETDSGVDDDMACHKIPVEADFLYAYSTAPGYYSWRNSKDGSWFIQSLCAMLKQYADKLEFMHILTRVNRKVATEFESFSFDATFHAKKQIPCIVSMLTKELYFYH

[28] = target: T4, Sentrin-specific protease 6 (Homo sapiens, UniProt Q9GZR1); assay type: functional;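 also: Luminescence-based dose-response confirmatory assay of SENP6 inhibition, following up an ultra-high-throughput screen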
T4 sequence (Q9GZR1 whole entry): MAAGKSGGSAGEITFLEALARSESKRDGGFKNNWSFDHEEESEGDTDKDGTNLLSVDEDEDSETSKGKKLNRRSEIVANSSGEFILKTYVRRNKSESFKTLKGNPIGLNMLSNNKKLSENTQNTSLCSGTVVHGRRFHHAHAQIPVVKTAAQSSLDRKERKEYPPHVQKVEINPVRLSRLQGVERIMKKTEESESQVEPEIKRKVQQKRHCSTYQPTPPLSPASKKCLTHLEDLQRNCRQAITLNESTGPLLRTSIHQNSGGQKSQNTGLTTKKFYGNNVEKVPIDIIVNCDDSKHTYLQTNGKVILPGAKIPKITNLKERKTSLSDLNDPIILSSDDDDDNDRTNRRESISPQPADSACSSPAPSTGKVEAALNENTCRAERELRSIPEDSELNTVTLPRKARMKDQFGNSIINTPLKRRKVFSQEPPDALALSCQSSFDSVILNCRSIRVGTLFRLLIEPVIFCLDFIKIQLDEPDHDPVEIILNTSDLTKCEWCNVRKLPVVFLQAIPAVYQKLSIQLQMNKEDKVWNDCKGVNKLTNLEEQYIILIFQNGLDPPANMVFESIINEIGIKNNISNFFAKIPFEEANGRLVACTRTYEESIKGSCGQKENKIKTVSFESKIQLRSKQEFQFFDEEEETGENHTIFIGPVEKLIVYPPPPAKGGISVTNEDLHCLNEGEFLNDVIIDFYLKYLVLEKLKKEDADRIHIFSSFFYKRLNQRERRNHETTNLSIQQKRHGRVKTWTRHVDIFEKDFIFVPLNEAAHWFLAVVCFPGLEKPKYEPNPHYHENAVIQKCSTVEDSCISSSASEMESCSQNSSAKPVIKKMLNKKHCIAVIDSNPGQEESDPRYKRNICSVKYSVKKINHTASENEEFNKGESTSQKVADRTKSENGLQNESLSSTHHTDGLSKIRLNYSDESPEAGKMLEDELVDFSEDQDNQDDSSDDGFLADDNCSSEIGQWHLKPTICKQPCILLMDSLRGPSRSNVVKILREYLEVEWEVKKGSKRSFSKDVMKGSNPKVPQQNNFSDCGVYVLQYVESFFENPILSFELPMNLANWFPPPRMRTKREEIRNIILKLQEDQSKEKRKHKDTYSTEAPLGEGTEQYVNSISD

[29] = viability loss in HepG2 hepatoma cells – cell-based, ATP luminescence, cherry-pick, activator set 2, cytotoxicity control, dose response (AID 1053143); assay type: functional
[30] = system: BJ; experiment: cells; assay type: functional, cell-based; conditions: Homo sapiens
[31] = system: BJ; experiment: BJ-TERT-LT-ST fibroblast viability loss – cell-based, RAS-independent, luminescence, dose response (AID 1935); assay type: functional; conditions: Homo sapiens;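 also: BJ fibroblasts immortalized with TERT plus LT and ST oncogenes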
[32] = target: Protein Tat (Human immunodeficiency virus type 1 group M subtype B (isolate HXB2)(HIV-1), UniProt P04608); assay type: functional;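 also: tat binding to TAR RNA read out by fluorescence polarization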
Chain of Protein Tat (P04608 whole entry): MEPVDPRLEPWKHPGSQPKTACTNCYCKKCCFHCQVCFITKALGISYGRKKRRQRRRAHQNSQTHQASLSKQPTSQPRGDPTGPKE

[33] = viability loss in THP-1 monocytes – THP-1 cells, cytotoxicity control for Vif-APOBEC3G degradation inhibitor project, dose response (AID 1117359); assay type: functional; conditions: THP-1
[34] = target: Caspase-7 (Homo sapiens, UniProt P55210); experiment: caspase-7 enzyme inhibition, selectivity check – biochemical, DEVD-R110 fluorescence, cherry-pick, selectivity assay for caspase-6 inhibitor project, dose response (AID 743295); assay type: functional
Chain of Caspase-7 (P55210 24-198 limits assumed): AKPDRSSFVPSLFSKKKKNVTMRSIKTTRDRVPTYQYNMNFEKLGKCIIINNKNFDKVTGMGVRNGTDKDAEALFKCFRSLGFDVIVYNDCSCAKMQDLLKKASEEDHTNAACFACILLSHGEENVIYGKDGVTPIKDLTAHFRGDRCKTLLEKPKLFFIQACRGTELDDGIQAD
Chain of Caspase-7 (P55210 207-303 limits assumed): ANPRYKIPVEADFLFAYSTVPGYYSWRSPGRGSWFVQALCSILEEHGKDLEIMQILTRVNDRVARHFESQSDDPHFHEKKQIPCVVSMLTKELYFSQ

[35] = target: Caspase-8 (Homo sapiens, UniProt Q14790); experiment: inhibitors of purified CASP8 protease – biochemical, Z-IETD-R110 fluorescence, cherry-picked samples, selectivity assay for caspase-6 inhibitor project, dose response (AID 743294)
Chain of Caspase-8 (Q14790 217-374 limits assumed): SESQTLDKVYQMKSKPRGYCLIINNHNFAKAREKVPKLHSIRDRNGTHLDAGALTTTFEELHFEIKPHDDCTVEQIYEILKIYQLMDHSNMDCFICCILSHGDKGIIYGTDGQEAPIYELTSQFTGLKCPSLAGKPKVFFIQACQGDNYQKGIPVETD
Chain of Caspase-8 (Q14790 385-479 limits assumed): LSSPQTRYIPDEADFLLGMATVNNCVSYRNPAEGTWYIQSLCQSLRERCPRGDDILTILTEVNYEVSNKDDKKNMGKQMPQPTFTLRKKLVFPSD

[36] = target: Caspase-6 (Homo sapiens, UniProt P55212); experiment: inhibition of CASP6 peptide cleavage – biochemical, VEID-R110 fluorescence, cherry-pick, dose response (AID 720632)
Chain of Caspase-6 (P55212 24-179 limits assumed): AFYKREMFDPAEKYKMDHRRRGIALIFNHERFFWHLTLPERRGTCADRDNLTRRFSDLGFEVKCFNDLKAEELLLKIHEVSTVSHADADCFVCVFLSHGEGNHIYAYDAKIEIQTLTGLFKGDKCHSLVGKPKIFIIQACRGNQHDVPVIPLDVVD
Chain of Caspase-6 (P55212 194-293 limits assumed): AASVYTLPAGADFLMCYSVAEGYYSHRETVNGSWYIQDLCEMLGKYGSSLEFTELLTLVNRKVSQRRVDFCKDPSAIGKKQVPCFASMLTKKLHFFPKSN

C[C@H]1CCCCO[C@H](CN(C)C(=O)c2ccccc2)[C@@H](C)CN([C@@H](C)CO)C(=O)c2cc(NC(=O)Nc3ccc(C(F)(F)F)cc3)ccc2O1
AC50 [1]: 29.5 µM (active)
AC50 [2]: 30.1 µM (active)
AC50 [3]: 9.48 µM (active)
AC50 [4]: 37.6 µM (active)
AC50 [5]: 47.8 µM (active)

O=C1C(Nc2cccc(Cl)c2)=C(N2CCCCC2)C(=O)c2ccccc21
AC50 [6]: 15.7 µM (active)
AC50 [7]: 3.46 µM (active)
AC50 [8]: 50.1 µM (active)

C[C@H]1CCCCO[C@H](CN(C)C(=O)Nc2cccc3ccccc23)[C@@H](C)CN([C@@H](C)CO)C(=O)c2cc(NS(=O)(=O)c3cn(C)cn3)ccc2O1
AC50 [9]: 47 µM (active)

CC(C)N1CC2(CN(Cc3ccccc3Cl)C2)Oc2c(NC(=O)c3ccncc3)cccc2C1=O
AC50 [10]: 0.463 µM (active)

CN1C(=O)c2cc(NC(=O)c3cccs3)ccc2OC[C@H]2O[C@@H](CC(=O)N3CCCCC3)CC[C@H]21
AC50 [11]: 9.9 µM (active)

CCOC(=O)C1(CCOc2ccccc2)CCN(Cc2cccc(Cl)c2)CC1
AC50 [12]: 32.3 µM (active)
AC50 [13]: > 30 µM (inactive)

CNC[C@@H]1Oc2cc(C#CC3CCCCC3)ccc2S(=O)(=O)N([C@@H](C)CO)C[C@@H]1C
AC50 [3]: 25.3 µM (active)
AC50 [14]: 19.4 µM (active)
AC50 [15]: 1.39 µM (active)

CCN(CC)c1ccc(/C=N/NC(=O)c2ccoc2C)c(O)c1
IC50 [16]: 0.757 µM (active)
EC50 [17]: 3.02 µM (active)
EC50 [18]: 0.785 µM (active)
EC50 [19]: 7.38 µM (active)
EC50 [20]: 2.06 µM (active)
EC50 [21]: 3.59 µM (active)
EC50 [22]: 0.83 µM (active)
EC50 [23]: 6.96 µM (active)
EC50 [24]: 51.7 µM (active)
IC50 [25]: 1.33 µM (active)
AC50 [26]: 0.622 µM (active)
IC50 [27]: 0.942 µM (active)
IC50 [28]: 0.849 µM (active)
AC50 [29]: 9.01 µM (active)
EC50 [30]: 6.42 µM (active)
EC50 [31]: 15.6 µM (active)

O=C(c1cccc(-n2cccc2)c1)N1CCN(S(=O)(=O)c2ccccc2)CC1
IC50 [32]: > 100 µM (active)
CC50 [33]: > 40 µM (active)
AC50 [34]: > 70 µM (inactive)
AC50 [35]: 28.1 µM (active)
AC50 [36]: 0.433 µM (active)
